# Target: T1, murine SR-BI (Mus musculus, UniProt Q61009)
# T1 construct: expressed in transfected cells; host or cells: ldlA-7 (LDL receptor deficient Chinese hamster ovary cells)
# T1 sequence (Q61009 1-509): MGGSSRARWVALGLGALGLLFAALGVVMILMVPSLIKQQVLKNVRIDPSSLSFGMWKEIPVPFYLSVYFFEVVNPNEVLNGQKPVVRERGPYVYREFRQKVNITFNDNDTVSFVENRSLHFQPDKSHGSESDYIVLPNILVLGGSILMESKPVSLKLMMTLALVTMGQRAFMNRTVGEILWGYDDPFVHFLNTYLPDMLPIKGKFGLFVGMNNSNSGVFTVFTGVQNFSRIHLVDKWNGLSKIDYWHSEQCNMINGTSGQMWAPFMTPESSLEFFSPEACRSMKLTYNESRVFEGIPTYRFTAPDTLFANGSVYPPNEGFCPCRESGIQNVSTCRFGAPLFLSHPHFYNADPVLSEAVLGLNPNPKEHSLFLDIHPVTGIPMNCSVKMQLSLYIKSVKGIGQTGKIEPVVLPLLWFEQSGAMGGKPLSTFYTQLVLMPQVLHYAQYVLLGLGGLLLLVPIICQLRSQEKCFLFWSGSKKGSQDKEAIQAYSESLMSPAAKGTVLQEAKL
# Assay: Uptake of DiI from DiI-HDL by ldlA[mSR-BI] cells (high throughput screen and concentration dependence)
# Assay type: cell-based
# [1] = DiI uptake from DiI-HDL, compounds at nominal 10 micromolar, ldlA[mSR-BI] cells
ENDOHDL Test 1,ENDOHDL Test 2,ENDOHDL Test 1 [1],ENDOHDL Test 2 [1],Compound
0.57,0.38,,,Cc1cccc(C(=O)Nc2cccc(-c3nc4c(C)cccc4o3)c2)c1 [MIT 9952-236]
0.53,0.39,,,COc1cc2ccccc2cc1C(=O)Nc1cccc(C)c1 [MIT 9952-237]
0.61,0.6,,,COc1ccc([N+](=O)[O-])cc1NC(=O)c1ccccc1 [MIT 9952-238]
0.64,0.71,,,COc1cccc(/C=N/Nc2ccc([N+](=O)[O-])cc2)c1 [MIT 9952-240]
0.48,0.52,,,O=S(=O)([O-])C(F)(F)F.O=[N+]([O-])c1ccc([I+]c2ccc(F)cc2)cc1 [MIT 9952-241]
1.26,1.26,,,C/C(=N\NC(=O)c1ccccc1)c1ccccc1C(=O)O [MIT 9952-242]
0.56,0.54,,,Brc1ccc2c(c1)OCCSCCOCCOCCSCCO2 [MIT 9952-244]
0.56,0.52,,,Cc1ccc2c(c1)/C(=C/c1ccc([N+](=O)[O-])cc1)c1cccnc1-2 [MIT 9952-246]
0.63,0.64,,,CCCCCOc1ccc(-c2ccc(C(=O)NC(NCc3ccccc3)C(Cl)(Cl)Cl)cc2)cc1 (stereo not shown) [MIT 9952-247]
0.68,0.66,,,CCc1nnc(N2CCN(c3ncnc4c3cnn4-c3ccccc3)CC2)s1 [MIT 9952-248]
1.28,1.24,,,CCN(CC(O)COc1ccccc1C(C)=O)S(=O)(=O)[O-].[Na+] (stereo not shown) [MIT 9952-250]
0.52,0.57,,,C=CCN(CC=C)C(=O)Nc1ccccc1 [MIT 9952-251]
0.58,0.39,,,CN(N)c1nc(-c2ccccc2)cc(-c2ccccc2)n1 [MIT 9952-252]
0.59,0.65,,,COc1ccc(C(=O)Nc2ccc(I)cc2)cc1OC [MIT 9952-253]
0.69,1.01,,,C/C(=N\NC(=O)COc1ccc(I)cc1)c1cccs1 [MIT 9952-254]
0.61,0.6,,,CCOc1ccc(NC(=O)/C=C/c2cccc([N+](=O)[O-])c2)cc1 [MIT 9952-255]
0.65,0.92,,,O=C(Nc1cccc(Cl)c1)N1CCN(c2ccc([N+](=O)[O-])cc2)CC1 [MIT 9952-256]
0.66,0.61,,,CCn1c(C)c(-c2ccccc2)c2cc([N+](=O)[O-])ccc21 [MIT 9952-257]
0.51,1.0,,,Cl.c1ccc(CCNC2CCCc3c2[nH]c2ccc(C4CCCCC4)cc32)cc1 (stereo not shown) [MIT 9952-258]
0.59,0.55,,,COc1ccc(C(=O)Nc2cccc(C(F)(F)F)c2)cc1OC [MIT 9952-259]
0.62,0.66,,,Brc1ccc(-c2cc(-c3ccccc3)nc(N3CCOCC3)n2)cc1 [MIT 9952-261]
0.53,0.45,,,c1ccc(-c2cc3c(ccc4nonc43)[nH]2)cc1 [MIT 9952-262]
0.66,0.65,,,O=C(/C=C/c1ccccc1)Nc1cccc(Cl)c1Cl [MIT 9952-263]
0.45,0.56,,,CC(=O)C1=C(C)NC(=S)NC1c1ccco1 (stereo not shown) [MIT 9952-264]
0.26,0.89,,,Cc1ccc2[nH]c3c(c2c1)CCCC3NCC12CC3CC(CC(C3)C1)C2 (stereo not shown) [MIT 9952-265]
0.57,1.11,,,CCN1/C(=C/c2sc3ccccc3[n+]2CC)Sc2ccccc21.Cc1ccc(S(=O)(=O)[O-])cc1 [MIT 9952-267]
0.59,0.65,,,O=C(Nc1ccc(Cl)c(Cl)c1)c1ccccc1Br [MIT 9952-268]
0.74,0.66,,,COc1ccccc1NC(=O)c1ccc(OC)c(OC)c1 [MIT 9952-269]

ENDOHDL Test 1,ENDOHDL Test 2,ENDOHDL Test 1 [1],ENDOHDL Test 2 [1],Compound
0.66,0.66,,,Cc1cccc(/C=N/Nc2nc(C)nc(C)n2)c1 [MIT 9952-270]
0.59,0.54,,,C/C(CS(=O)(=O)c1ccccc1)=N/NC(N)=S [MIT 9952-271]
0.61,0.51,,,COc1ccc(N/N=C2\C(=O)ON=C2c2ccc(OC)cc2)cc1 [MIT 9952-272]
0.51,0.48,,,CC(=O)OCc1c(C)cc(C)c(/C=N/Nc2ccc([N+](=O)[O-])cc2)c1C [MIT 9952-273]
0.65,0.6,,,CC(C)c1ccc(NC(=O)/C=C/c2cccc([N+](=O)[O-])c2)cc1 [MIT 9952-274]
0.73,0.68,,,Cc1cc(C)c(NC(=O)C2CCCN2N)c(C)c1 (stereo not shown) [MIT 9952-276]
0.66,0.65,,,COc1ccc(C(=O)Nc2ccc(C(C)C)cc2)cc1OC [MIT 9952-277]
0.71,0.67,,,CCOC1=C(C(C)=O)NC(c2ccc(OC)cc2)C(=S)N1 (stereo not shown) [MIT 9952-278]
,,0.64,0.63,Cc1cccc(C(=O)Nc2cccc(Cl)c2)c1 [MIT 9952-279]
,,0.75,0.67,O=C(Nc1ccc2c(c1)OCO2)c1ccc2ccccc2c1 [MIT 9952-280]
,,0.59,0.34,O=C(N/N=C/c1cc2c(cc1Br)OCO2)c1cccc(Cl)c1 [MIT 9952-281]
,,0.49,0.5,O=[N+]([O-])c1cccc(-c2ccc(C(=S)N3CCCCC3)o2)c1 [MIT 9952-282]
,,0.53,0.48,Cc1cc(C)c(CO)c(C)c1/C=N/Nc1ccc([N+](=O)[O-])cc1 [MIT 9952-283]
,,0.65,0.54,O=C(Nc1ccc(-c2nc3ccccc3s2)cc1)c1ccc(Cl)cc1Cl [MIT 9952-284]
,,0.57,0.53,COc1cccc(C(=O)N/N=C/c2ccc(Cl)cc2Cl)c1 [MIT 9952-285]
,,0.62,0.64,O=[N+]([O-])c1ccc(-c2sc(/N=C/c3c(O)ccc4ccccc34)nc2-c2ccc(Cl)cc2)cc1 [MIT 9952-286]
,,1.18,1.32,Cc1cc(C)c(/C=N/N=C/c2c(C)cc(C)cc2C)c(C)c1 [MIT 9952-287]
,,0.6,0.64,COc1cccc(C(=O)Nc2nc3ccc(Cl)cc3s2)c1 [MIT 9952-289]
,,0.52,0.56,O=C(/C=C/c1cccc([N+](=O)[O-])c1)Nc1cccc(C(F)(F)F)c1 [MIT 9952-290]
,,0.55,0.51,O=C(/C=C/c1cccc([N+](=O)[O-])c1)Nc1cccc(Cl)c1 [MIT 9952-291]
,,0.47,0.58,CCSC(=O)C(NC1=C(C)C(=O)N1)c1ccccc1 (stereo not shown) [MIT 9952-292]
,,0.61,0.56,C=CC/C=C/c1c(NC(=O)c2ccccc2)sc2c1CCCC2 [MIT 9952-294]
,,0.64,0.58,CCN1/C(=C\C(=O)c2ccc(C)cc2)Sc2ccccc21 [MIT 9952-295]
,,0.63,0.61,O=C(Nc1sc2c(c1C(=O)NCCc1ccc(O)cc1)CCCC2)c1ccccc1 [MIT 9952-296]
,,0.56,0.46,CCOC(=O)C1=C(C)NC(=S)N(C=O)C1c1ccccc1 (stereo not shown) [MIT 9952-297]
,,1.29,1.24,O=C(/C=C/C=C(Cl)Cl)c1ccc2c(c1)OCO2 [MIT 9952-298]
,,0.35,0.44,[O-][n+]1onc2c3cc(-c4ccccc4)[nH]c3ccc21 [MIT 9952-304]

Compound,ENDOHDL Test 1,ENDOHDL Test 2,ENDOHDL Test 1 [1],ENDOHDL Test 2 [1]
O=C(Nc1ccc(-c2nc3cc(NC(=O)c4ccccc4[N+](=O)[O-])ccc3o2)cc1)c1ccccc1[N+](=O)[O-] [MIT 9952-234],0.58,0.54,,
Cc1c([N+](=O)[O-])cc(C(=O)Nc2cccc(NC(=O)c3ccccc3)c2)cc1[N+](=O)[O-] [MIT 9952-235],0.62,0.33,,
C/C(=N\Nc1ccc([N+](=O)[O-])cc1)c1ccc([N+](=O)[O-])cc1 [MIT 9952-245],0.54,0.64,,
CCCCOCCC1CCC/C1=N\NC(N)=S (stereo not shown) [MIT 9952-249],0.7,0.57,,
CC[n+]1c(/C=C/SC)ccc2ccccc21 [MIT 9952-260],0.56,0.58,,
CC(C)=C/C(=N\Nc1ccc([N+](=O)[O-])cc1[N+](=O)[O-])C1CC=CCC1 (stereo not shown) [MIT 9952-288],,,0.59,0.52
Br.NS(=O)(=O)c1ccc(Nc2nc(-c3ccc(Cl)cc3)cs2)cc1 [MIT 9952-293],,,0.69,0.67

# From patent US20040171073A1, “Compounds for modulation of cholesterol transport” (Massachusetts Institute of Technology, priority 2002, published 2004)
